Literature values, collected in patent US20240299293A1 (priority 2020, published 2024).

System: human coronaviruses, including CoV-229E and SARS-COV, and animal coronaviruses
Conditions: for elimination of coronaviruses: hexachlorophene, 2% glutaraldehyde, 1% povidone-iodine, benzalkonium chloride, chlorhexidine

Molecule | elimination of coronaviruses | further results
povidone-iodine | satisfactory elimination rates | –
[H]/N=C(\N/C(=N/[H])NCCCCCCNC(=N)NC(=N)Nc1ccc(Cl)cc1)Nc1ccc(Cl)cc1 [chlorhexidine] | only if 70% ethanol is present in the solution | –
OCl [sodium hypochlorite] | – | susceptibility of coronaviruses (6% sodium hypochlorite solutions): variable
O=CCCCC=O [glutaraldehyde] | satisfactory elimination rates | –
CCO [ethanol] | – | reduction of viability (70% ethanol, viruses in suspension and dried on surfaces, within seconds): greater than 3 log
benzalkonium chloride | only if 70% ethanol is present in the solution | –
Oc1c(Cl)cc(Cl)c(Cl)c1Cc1c(O)c(Cl)cc(Cl)c1Cl [hexachlorophene] | satisfactory elimination rates | –
